Reference: ChEMBL document CHEMBL1268977, “Efficient synthesis, spectral analysis and antimicrobial studies of nitrogen and sulfur containing spiro heterocycles from 2,4-diaryl-3-azabicyclo[3.3.1]nonan-9-ones” (2010)
≈ marks a conversion by molar mass, not a printed value. Calls of active or inactive are those of the source. The rule behind the calls is not given here.

How the values were obtained:
Staphylococcus aureus = assay: Antibacterial activity against Staphylococcus aureus ATCC 25930 after 24 hrs by serial dilution method; format: functional; settings: ATCC 25930, 24 h
Salmonella typhi = assay: Antibacterial activity against Salmonella typhi ATCC 25021 after 24 hrs by serial dilution method; format: functional, Salmonella enterica subsp. enterica serovar Typhi; settings: Salmonella enterica, ATCC 25021, 24 h
Aspergillus flavus = assay: Antifungal activity against Aspergillus flavus ATCC 525 after 72 to 96 hrs by serial dilution method; format: functional
Klebsiella pneumoniae = assay: Antibacterial activity against Klebsiella pneumoniae ATCC 16425 after 24 hrs by serial dilution method; format: functional; settings: ATCC 16425, 24 h
Cryptococcus neoformans = assay: Antifungal activity against Cryptococcus neoformans ATCC 3235 after 72 to 96 hrs by serial dilution method; format: functional
Aspergillus niger = assay: Antifungal activity against Aspergillus niger ATCC 635 after 72 to 96 hrs by serial dilution method; format: functional
Bacillus subtilis [1] = assay: Antibacterial activity against Bacillus subtilis ATCC 530 at 200 ug/ml after 24 hrs by serial dilution method; format: functional, organism-based
Rhizopus = assay: Antifungal activity against Rhizopus species ATCC 2842 after 72 to 96 hrs by serial dilution method; format: functional
Candida albicans = assay: Antifungal activity against Candida albicans ATCC 3430 after 72 to 96 hrs by serial dilution method; format: functional
Escherichia coli = assay: Antibacterial activity against Escherichia coli ATCC 26032 after 24 hrs by serial dilution method; format: functional; settings: ATCC 26032, 24 h
Bacillus subtilis [2] = assay: Antibacterial activity against Bacillus subtilis ATCC 530 after 24 hrs by serial dilution method; format: functional; settings: ATCC 530, 24 h

`CCC(=O)NC1=NN(C(=O)CC)C2(S1)C1CCCC2C(c2ccc(OC)cc2)N(C(=O)CC)C1c1ccc(OC)cc1` (stereo not given) was tested, and the MIC (Staphylococcus aureus) was 25 mg/L (≈ 42.2 µM), the MIC (Salmonella typhi) was 25 mg/L (≈ 42.2 µM) and the MIC (Aspergillus flavus) was 100 mg/L (≈ 169 µM). The MIC (Klebsiella pneumoniae) was 25 mg/L (≈ 42.2 µM), the MIC (Cryptococcus neoformans) was 50 mg/L (≈ 84.4 µM) and the MIC (Aspergillus niger) was 25 mg/L (≈ 42.2 µM). The inhibition (Bacillus subtilis [1]) was “inactive”, the MIC (Rhizopus) was 100 mg/L (≈ 169 µM) and the MIC (Candida albicans) was 25 mg/L (≈ 42.2 µM). It also gave an MIC (Escherichia coli) of 50 mg/L (≈ 84.4 µM).
`C[C@@H]1[C@H](O)[C@@H](C)/C=C/C=C/C=C/C=C/C=C/C=C/C=C/[C@H](O[C@@H]2O[C@H](C)[C@@H](O)[C@H](N)[C@@H]2O)C[C@@H]2O[C@](O)(C[C@@H](O)C[C@@H](O)[C@H](O)CC[C@@H](O)C[C@@H](O)CC(=O)O[C@H]1C)C[C@H](O)[C@H]2C(=O)O` [AMPHOTERICIN B] showed an MIC (Aspergillus flavus) of 50 mg/L (≈ 54.1 µM), an MIC (Cryptococcus neoformans) of 25 mg/L (≈ 27.1 µM) and an MIC (Aspergillus niger) of 50 mg/L (≈ 54.1 µM). The MIC (Rhizopus) was 25 mg/L (≈ 27.1 µM) and the MIC (Candida albicans) was 25 mg/L (≈ 27.1 µM).
Compound `CCC(=O)NC1=NN(C(=O)CC)C2(S1)C1CCCC2C(c2cccc(F)c2)NC1c1cccc(F)c1` (stereo not given) has an MIC (Staphylococcus aureus) of 100 mg/L (≈ 195 µM), an MIC (Salmonella typhi) of 6.25 mg/L (≈ 12.2 µM) and an MIC (Aspergillus flavus) of 50 mg/L (≈ 97.5 µM). The MIC (Klebsiella pneumoniae) was 50 mg/L (≈ 97.5 µM), the MIC (Cryptococcus neoformans) was 25 mg/L (≈ 48.8 µM) and the MIC (Bacillus subtilis [2]) was 6.25 mg/L (≈ 12.2 µM). The MIC (Aspergillus niger) was 12.5 mg/L (≈ 24.4 µM), the MIC (Rhizopus) was 25 mg/L (≈ 48.8 µM) and the MIC (Candida albicans) was 25 mg/L (≈ 48.8 µM). It also gave an MIC (Escherichia coli) of 6.25 mg/L (≈ 12.2 µM).
`CC(=O)NC1=NN(C(C)=O)C2(S1)C1CCCC2C(c2cccc(F)c2)NC1c1cccc(F)c1` (stereo not given) was tested, and the MIC (Staphylococcus aureus) was 50 mg/L (≈ 103 µM), the MIC (Salmonella typhi) was 6.25 mg/L (≈ 12.9 µM) and the MIC (Aspergillus flavus) was 6.25 mg/L (≈ 12.9 µM). For the same compound, the MIC (Klebsiella pneumoniae) was 6.25 mg/L (≈ 12.9 µM), the MIC (Cryptococcus neoformans) was 25 mg/L (≈ 51.6 µM) and the MIC (Bacillus subtilis [2]) was 25 mg/L (≈ 51.6 µM). The MIC (Aspergillus niger) was 25 mg/L (≈ 51.6 µM), the MIC (Rhizopus) was 12.5 mg/L (≈ 25.8 µM) and the MIC (Candida albicans) was 25 mg/L (≈ 51.6 µM). For the same compound, the MIC (Escherichia coli) was 6.25 mg/L (≈ 12.9 µM).
With `CCC(=O)NC1=NN(C(=O)CC)C2(S1)C1CCCC2C(c2ccc(C)cc2)NC1c1ccc(C)cc1` (stereo not given) the MIC (Staphylococcus aureus) was 50 mg/L (≈ 99.1 µM), the MIC (Salmonella typhi) was 50 mg/L (≈ 99.1 µM) and the MIC (Aspergillus flavus) was 200 mg/L (≈ 396 µM). It also gave an MIC (Klebsiella pneumoniae) of 25 mg/L (≈ 49.5 µM), an MIC (Cryptococcus neoformans) of 25 mg/L (≈ 49.5 µM) and an MIC (Bacillus subtilis [2]) of 100 mg/L (≈ 198 µM). The MIC (Aspergillus niger) was 100 mg/L (≈ 198 µM), the MIC (Rhizopus) was 50 mg/L (≈ 99.1 µM) and the MIC (Candida albicans) was 25 mg/L (≈ 49.5 µM). It also gave an MIC (Escherichia coli) of 25 mg/L (≈ 49.5 µM).
For `CC(=O)NC1=NN(C(C)=O)C2(S1)C1CCCC2C(c2ccc(Cl)cc2)NC1c1ccc(Cl)cc1` (stereo not given), the MIC (Staphylococcus aureus) was 25 mg/L (≈ 48.3 µM), the MIC (Salmonella typhi) was 25 mg/L (≈ 48.3 µM) and the MIC (Aspergillus flavus) was 50 mg/L (≈ 96.6 µM). It also gave an MIC (Klebsiella pneumoniae) of 50 mg/L (≈ 96.6 µM), an MIC (Cryptococcus neoformans) of 6.25 mg/L (≈ 12.1 µM) and an MIC (Aspergillus niger) of 25 mg/L (≈ 48.3 µM). For the same compound, the inhibition (Bacillus subtilis [1]) was “inactive”, the MIC (Rhizopus) was 200 mg/L (≈ 386 µM) and the MIC (Candida albicans) was 25 mg/L (≈ 48.3 µM). For the same compound, the MIC (Escherichia coli) was 12.5 mg/L (≈ 24.2 µM).
Compound `CC(=O)NC1=NN(C(C)=O)C2(S1)C1CCCC2C(c2ccccc2)N(C(C)=O)C1c1ccccc1` (stereo not given) has an MIC (Staphylococcus aureus) of 12.5 mg/L (≈ 25.5 µM), an MIC (Salmonella typhi) of 25 mg/L (≈ 51 µM) and an MIC (Aspergillus flavus) of 100 mg/L (≈ 204 µM). It also gave an MIC (Klebsiella pneumoniae) of 100 mg/L (≈ 204 µM), an MIC (Cryptococcus neoformans) of 50 mg/L (≈ 102 µM) and an MIC (Bacillus subtilis [2]) of 100 mg/L (≈ 204 µM). It also gave an MIC (Aspergillus niger) of 25 mg/L (≈ 51 µM), an MIC (Rhizopus) of 50 mg/L (≈ 102 µM) and an MIC (Candida albicans) of 100 mg/L (≈ 204 µM). For the same compound, the MIC (Escherichia coli) was 50 mg/L (≈ 102 µM).
`CC(=O)NC1=NN(C(C)=O)C2(S1)C1CCCC2C(c2ccc(F)cc2)NC1c1ccc(F)cc1` (stereo not given) gave an MIC (Staphylococcus aureus) of 50 mg/L (≈ 103 µM), an MIC (Salmonella typhi) of 6.25 mg/L (≈ 12.9 µM) and an MIC (Aspergillus flavus) of 6.25 mg/L (≈ 12.9 µM). For the same compound, the MIC (Klebsiella pneumoniae) was 12.5 mg/L (≈ 25.8 µM), the MIC (Cryptococcus neoformans) was 12.5 mg/L (≈ 25.8 µM) and the MIC (Bacillus subtilis [2]) was 6.25 mg/L (≈ 12.9 µM). For the same compound, the MIC (Aspergillus niger) was 6.25 mg/L (≈ 12.9 µM), the MIC (Rhizopus) was 50 mg/L (≈ 103 µM) and the MIC (Candida albicans) was 6.25 mg/L (≈ 12.9 µM). For the same compound, the MIC (Escherichia coli) was 12.5 mg/L (≈ 25.8 µM).
`CCC(=O)NC1=NN(C(=O)CC)C2(S1)C1CCCC2C(c2ccc(Cl)cc2)NC1c1ccc(Cl)cc1` (stereo not given) showed an MIC (Staphylococcus aureus) of 200 mg/L (≈ 367 µM), an MIC (Salmonella typhi) of 12.5 mg/L (≈ 22.9 µM) and an MIC (Aspergillus flavus) of 50 mg/L (≈ 91.7 µM). For the same compound, the MIC (Klebsiella pneumoniae) was 100 mg/L (≈ 183 µM), the MIC (Cryptococcus neoformans) was 25 mg/L (≈ 45.8 µM) and the MIC (Bacillus subtilis [2]) was 12.5 mg/L (≈ 22.9 µM). For the same compound, the MIC (Aspergillus niger) was 12.5 mg/L (≈ 22.9 µM), the MIC (Rhizopus) was 12.5 mg/L (≈ 22.9 µM) and the MIC (Candida albicans) was 12.5 mg/L (≈ 22.9 µM). The MIC (Escherichia coli) was 25 mg/L (≈ 45.8 µM).
In the case of `CCC(=O)NC1=NN(C(=O)CC)C2(S1)C1CCCC2C(c2ccccc2)N(C(=O)CC)C1c1ccccc1` (stereo not given), the MIC (Staphylococcus aureus) was 12.5 mg/L (≈ 23.5 µM), the MIC (Salmonella typhi) was 25 mg/L (≈ 46.9 µM) and the MIC (Aspergillus flavus) was 12.5 mg/L (≈ 23.5 µM). The MIC (Klebsiella pneumoniae) was 50 mg/L (≈ 93.9 µM), the MIC (Cryptococcus neoformans) was 6.25 mg/L (≈ 11.7 µM) and the MIC (Bacillus subtilis [2]) was 50 mg/L (≈ 93.9 µM). The MIC (Aspergillus niger) was 50 mg/L (≈ 93.9 µM), the MIC (Rhizopus) was 12.5 mg/L (≈ 23.5 µM) and the MIC (Candida albicans) was 50 mg/L (≈ 93.9 µM). It also gave an MIC (Escherichia coli) of 50 mg/L (≈ 93.9 µM).
